Test: Storage stability of crystalline SN38
Format: physicochemical
Details: 25° C. and 70% relative humidity for one year

stability on storage: stable
SMILES: CCc1c2c(nc3ccc(O)cc13)-c1cc3c(c(=O)n1C2)COC(=O)C3(O)CC (stereo not shown) [crystalline SN38, 7-ethyl-10-hydroxycamptothecin]

— patent publication US8138343B2, “Crystalline polymorph of 7-ethyl-10-hydroxycamptothecin” (ScinoPharm Taiwan Ltd., priority 2007, dated 2012)
